Assay results as given in ChEMBL document CHEMBL3826968, “Glycine Transporter 1 Inhibitors and the Promise of a New Schizophrenia Therapy” (ACS Med Chem Lett, 2016).
pKi: −log10 of the molar value.

target: T1, Sodium- and chloride-dependent glycine transporter 1 (Homo sapiens, UniProt P48067); assay: Displacement of [3H](R)-NPTS or [3H]N-methyl-SSR504734 from recombinant human glycine transporter type-1 isoform C expressed in CHO cell membrane incubated for 1 hr by liquid scintillation spectrometry; type: cell membranes
T1 sequence (P48067 whole entry): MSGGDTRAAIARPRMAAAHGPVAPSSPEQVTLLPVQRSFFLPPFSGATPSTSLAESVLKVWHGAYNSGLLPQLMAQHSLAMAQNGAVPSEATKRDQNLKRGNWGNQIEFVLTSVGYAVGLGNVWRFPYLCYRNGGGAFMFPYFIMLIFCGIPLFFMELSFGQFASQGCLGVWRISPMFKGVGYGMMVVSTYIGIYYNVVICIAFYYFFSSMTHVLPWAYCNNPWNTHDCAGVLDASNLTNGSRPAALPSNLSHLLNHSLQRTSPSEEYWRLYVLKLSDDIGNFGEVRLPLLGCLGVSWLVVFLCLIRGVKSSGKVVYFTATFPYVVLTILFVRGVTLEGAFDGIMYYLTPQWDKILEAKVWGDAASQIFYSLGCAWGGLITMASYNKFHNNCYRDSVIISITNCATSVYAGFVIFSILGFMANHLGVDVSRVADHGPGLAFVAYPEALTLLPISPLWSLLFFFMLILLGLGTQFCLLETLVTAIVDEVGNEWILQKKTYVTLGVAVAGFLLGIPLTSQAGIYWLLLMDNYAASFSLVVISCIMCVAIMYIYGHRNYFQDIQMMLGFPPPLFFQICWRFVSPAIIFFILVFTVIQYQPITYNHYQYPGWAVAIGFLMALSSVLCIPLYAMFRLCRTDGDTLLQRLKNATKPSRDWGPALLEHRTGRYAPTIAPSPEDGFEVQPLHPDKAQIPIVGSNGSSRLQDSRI

Row | pKi | Compound
1 | ≤ 5.00 | Cn1cc(S(=O)(=O)N2CC(c3ccccc3)C(c3ccccn3)=N2)cn1 (stereo not drawn)
2 | ≥ 6.00 | Cn1cnc(S(=O)(=O)N2CC(c3ccc(Cl)cc3)C(c3ccccc3)=N2)c1 (stereo not drawn)
3 | ≥ 5.00 | Cn1cc(S(=O)(=O)N2CC(c3ccc(F)cc3)C(c3cccc(C(F)(F)F)c3)=N2)nn1 (stereo not drawn)
